These results are taken from patent US20050113413A1, “Naphthalene-1,5-disulfonic acid salts of a substituted 4-amino-1-(pyridylmethyl)piperidine compound” (priority 2003, published 2005).

What all share (type): physicochemical
A short description of data set [1]: Chemical stability of salt forms (change in purity by HPLC upon storage). The conditions noted are these: 40° C. and 75% relative humidity, 7 days; for % Change in Impurity A / % Change in Impurity B / % Change in Purity of Salt: HPLC Method D; for % Change in Purity of Salt: heat sealed polyethylene bags. The method, then:
The chemical stability of each salt form was evaluated by determining the change in purity of the sample upon storage of the salt form at 40° C.
Prior to storage, each salt form was analyzed by HPLC (Method D) to determine sample purity and in particular, to determine the amount of the following impurities present in the sample: • A. 3-[4-{N-[7-(3-(S)-1-Carbamoyl-1,1-diphenylmethyl)pyrrolidin-1-yl)hept-1-yl]-N-(isopropyl)amino}piperidin-1-ylmethyl]-4-methoxy-1-methylpyridinium Salt (Impurity A); • B. 4-{N-[7-(3-(S)-1-Carbamoyl-1,1-diphenylmethyl)pyrrolidin-1-yl)hept-1-yl]-N-(isopropyl)amino}-1-(4-oxo-1,4-dihydropyrid-3-ylmethyl)piperidine (Impurity B).
Approximately 50-100 mg of the salt form was then placed in two heat sealed low density polyethylene bags. The bags were then placed into a stability chamber that was previously set at 40° C. and 75% relative humidity. After 7 days, the bags were removed and the contents were analyzed by HPLC.

A short description of data set [2]: Physical stability of salt forms (appearance upon storage in open vial). The conditions noted are these: 30° C. and 60% relative humidity, listed as naphthalene-1,5-disulfonic acid salt. The method, then: The physical stability of certain salt forms was evaluated by determining any changes in appearance of the sample upon storage of the salt form at 30° C. and 60% relative humidity.
To an open vial was added 50-100 mg of each salt form. The open vials were placed in a stability chamber that was previously set at 30° C. and 60% relative humidity. At periodic intervals, the appearance of each salt form was compared to its starting appearance and any differences were recorded.

Data set [3] is described as follows: Physical stability of encapsulated pharmaceutical formulations (appearance upon storage). The conditions noted are these: both 25° C. and 60% relative humidity, and ambient temperature and relative humidity. The protocol: The physical stability of encapsulated pharmaceutical formulations containing certain salt forms was evaluated by determining any changes in appearance of the pharmaceutical formulation upon storage.
Capsules containing a 1:1 mixture (wt/wt) of the salt form and microcrystalline cellulose (Avecil) were stored under of the following conditions: • (1) Capsules were placed inside an open container within a stability chamber that was previously set to 25° C. and 60% relative humidity; or • (2) Capsules were placed inside an open container on the bench top alongside a thermometer and hygrometer.
At periodic intervals, the appearance of each formulation was compared to its starting appearance and any differences were recorded.

Molecules are shown by their SMILES.

In the case of `COc1ccncc1CN1CCC(N(CCCCCCCN2CC[C@@H](C(C(N)=O)(c3ccccc3)c3ccccc3)C2)C(C)C)CC1.O=C(O)c1cc(O)ccc1O.O=C(O)c1cc(O)ccc1O` [Example 11F], in data set [1], the “% Change in Impurity A” value is 0.21%, the “% Change in Impurity B” value was found to be 0.23% and the “% Change in Purity of Salt” value turned out to be 0.4%.

Regarding `COc1ccncc1CN1CCC(N(CCCCCCCN2CC[C@@H](C(C(N)=O)(c3ccccc3)c3ccccc3)C2)C(C)C)CC1.CS(=O)(=O)O.CS(=O)(=O)O.CS(=O)(=O)O` [Example 10], in data set [1], the “% Change in Impurity A” value came to 9.41%, the “% Change in Impurity B” value was determined as 6.59% and the “% Change in Purity of Salt” value stood at 16.4%.

As for `COc1ccncc1CN1CCC(N(CCCCCCCN2CC[C@@H](C(C(N)=O)(c3ccccc3)c3ccccc3)C2)C(C)C)CC1.O=C(O)c1ccccc1O.O=C(O)c1ccccc1O` [Example 11D], in data set [1], the “% Change in Impurity A” value is 0.17%, the “% Change in Impurity B” value came out at 0.19% and the “% Change in Purity of Salt” value stood at 0.7%.

Regarding `COc1ccncc1CN1CCC(N(CCCCCCCN2CC[C@@H](C(C(N)=O)(c3ccccc3)c3ccccc3)C2)C(C)C)CC1.O=S(=O)(O)c1cccc2c(S(=O)(=O)O)cccc12` [Example 7], in data set [1], the “Chemical stability (summary in words of Table I)” value is listed as “excellent chemical stability”, the “% Change in Impurity A” value was under 0.1%, the “% Change in Impurity B” value was under 0.1% and the “% Change in Purity of Salt” value was 0.4%. Further, the “Appearance Day 15” value in data set [2] was “remained a free flowing powder”. Besides, in data set [3], the “Appearance of pharmaceutical formulation upon storage (summary in words of Table III)” value is listed as “remained a free flowing powder”.

Consider `COc1ccncc1CN1CCC(N(CCCCCCCN2CC[C@@H](C(C(N)=O)(c3ccccc3)c3ccccc3)C2)C(C)C)CC1.Cl.Cl` [Example 11G], for which, in data set [1], the “% Change in Impurity A” value is on record as 1.16%, the “% Change in Impurity B” value is on record as 0.79% and the “% Change in Purity of Salt” value was 3.6%.

Consider `COc1ccncc1CN1CCC(N(CCCCCCCN2CC[C@@H](C(C(N)=O)(c3ccccc3)c3ccccc3)C2)C(C)C)CC1.O=C(O)c1cc(=O)[nH]c(=O)[nH]1.O=C(O)c1cc(=O)[nH]c(=O)[nH]1` [Example 11C], for which, in data set [1], the “% Change in Impurity A” value is recorded as 0.45%, the “% Change in Impurity B” value came to 0.49% and the “% Change in Purity of Salt” value was determined as 1.1%.

Consider `COc1ccncc1CN1CCC(N(CCCCCCCN2CC[C@@H](C(C(N)=O)(c3ccccc3)c3ccccc3)C2)C(C)C)CC1.CS(=O)(=O)O.CS(=O)(=O)O` [Example 9], for which, in data set [1], the “% Change in Impurity A” value is given as under 0.1%, the “% Change in Impurity B” value was under 0.1% and the “% Change in Purity of Salt” value is reported as 0.9%.

For `COc1ccncc1CN1CCC(N(CCCCCCCN2CC[C@@H](C(C(N)=O)(c3ccccc3)c3ccccc3)C2)C(C)C)CC1.O=S(=O)(O)O` [Example 11A], in data set [1], the “% Change in Impurity A” value is under 0.1%, the “% Change in Impurity B” value came to 0.11% and the “% Change in Purity of Salt” value worked out at 0.8%.

Take `COc1ccncc1CN1CCC(N(CCCCCCCN2CC[C@@H](C(C(N)=O)(c3ccccc3)c3ccccc3)C2)C(C)C)CC1.O=C(O)C(O)C(O)C(=O)O` [Example 11B]: in data set [1], the “% Change in Impurity A” value is reported as 0.26%, the “% Change in Impurity B” value came out at 0.35% and the “% Change in Purity of Salt” value turned out to be 0.8%. Besides, the “Appearance of pharmaceutical formulation upon storage (summary in words of Table III)” value in data set [3] is recorded as “formed a non-flowing granular cake”.

For `COc1ccncc1CN1CCC(N(CCCCCCCN2CC[C@@H](C(C(N)=O)(c3ccccc3)c3ccccc3)C2)C(C)C)CC1.O=C(O)c1ccccc1O.O=C(O)c1ccccc1O.O=C(O)c1ccccc1O` [Example 11E], in data set [1], the “% Change in Impurity A” value turned out to be 1.22%, the “% Change in Impurity B” value came out at 1.06% and the “% Change in Purity of Salt” value stood at 2.7%.
